We go through 14 compounds from US7122193B1 (priority 1994, dated 2006).

One may read the half-life as how long it takes for the measured level to halve. A low value points to rapid decline.

One data set deals with trypsin. Conditions: pH 7.4.
Another data set is described as follows: in vitro. The note with it: pH 7.4.
Data set [1] concerns the target MAb 11 × 7 (IgG3) anti-D peptide.
The target of data set [2] is MAb 11 × 2 (IgG3) anti-D peptide.
In data set [3] the test system is anti-virus serum raised in rabbit and serum against the 91–108 sequence expressed at the surface of Salmonella flagellin. The format is binding. Conditions: FIGS. 14 and 15.
Data set [4] has as its system peptide-primed T lymphocytes from BALB/c mice. The format is cell-based, mouse.
For another data set, the target named is I-E^d class II molecules (Mus musculus, UniProt P01904+P01915). The format is cell-based.
Chain of I-E^d class II molecules (P01904 26-255 limits assumed): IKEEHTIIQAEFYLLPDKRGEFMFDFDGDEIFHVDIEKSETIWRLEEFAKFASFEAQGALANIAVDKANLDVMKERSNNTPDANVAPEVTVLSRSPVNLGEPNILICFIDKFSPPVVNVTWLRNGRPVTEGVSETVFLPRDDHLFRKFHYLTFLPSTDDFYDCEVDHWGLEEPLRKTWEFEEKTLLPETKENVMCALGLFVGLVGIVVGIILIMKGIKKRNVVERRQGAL
Chain of I-E^d class II molecules (P01915 27-264 limits assumed): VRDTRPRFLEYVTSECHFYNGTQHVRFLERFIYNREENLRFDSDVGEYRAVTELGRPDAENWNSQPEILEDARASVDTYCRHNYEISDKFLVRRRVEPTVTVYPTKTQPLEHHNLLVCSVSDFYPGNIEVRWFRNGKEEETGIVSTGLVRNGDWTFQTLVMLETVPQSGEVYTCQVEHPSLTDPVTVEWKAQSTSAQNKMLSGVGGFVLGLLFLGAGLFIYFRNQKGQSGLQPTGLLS
A further data set has as its target I-A^d class II molecules (Mus musculus, UniProt P01921+P04228). The class given is cell-based.
The test system of a further data set is BALB/c mice. Conditions: mouse, in vivo.
Data set [5] relates to peptide-primed T lymphocytes from BALB/c mice. The class given is cell-based, mouse. This is another data set of the same source.
Data set [6] concerns TCR of peptide-primed lymph node T-cells. The class given is cell-based, mouse.
Data set [7] concerns I-E^d-restricted T-cell hybridomas 45G10, 44B1 and 41C1. The class given is cell-based, mouse.
For data set [8], the system named is sera of patients suffering from various systemic rheumatic diseases. The format is binding, human.
Another data set concerns HLA-A2. The format is binding, human.
In data set [9] the test system is IgG antibodies of sera of patients suffering from DLE and SS. The format is binding, human.
The test system is the same in data set [10]. The format is binding, human. The protocol: FIG. 6: ELISA reactivity of serum samples originating from patients suffering from DLE and SS with the parent peptide and the analogue RIb 277–291 of Ro52. The sera of the patients are diluted to 1:1,000. Only the antibody activity of the sub-class IgG is measured. The median values of the optical density are indicated. The broken line represents the upper limit of the normal population corresponding to the mean value of the optical density of 20 normal human sera+2 SD (standard deviation) (0.30 OD units).
Sera of female F1 lupous mice (NZB/W) were obtained from S. Batsford (Freibourg, Germany). The human sera originate from patients suffering from disseminated lupus erythematosus (DLE) and Sjögren's syndrome (SS). They were obtained from D. A. Isenberg (London), O. Meyer (Paris) and G. Fournié (Toulouse). The sera of healthy volunteers were obtained from J. L. Pasquali (Strasbourg).
The sera of lupous mice were tested by ELISA as described previously (Benkirane, N., Friede, M., Guichard, G., briand, J. P., Van Regenmortel, M. H. V. and Muller, S. (1993) Antigenicity and immunogenicity of modified synthetic peptides containing D-amino acid residues. J. Biol. Chem., 268: 26279–26285). Only the antibodies of isotype IgG were tested. […] Clin. Exp. Immunol., 95: 397–407) except in the case of the peptide Ro52 277–291, where sensitization of the ELISA plates was carried out at 4° C. instead of 37° C. (see the reasons above). The threshold value for positivity of each test, including that of tests based on the use of retro-inverso peptide analogues, was determined using 20 sera of healthy individuals. The antigenic activity of the peptides is also measured by ELISA using a liquid phase inhibition test.
The 30 sera (positive or negative with respect to the L peptide) were tested in parallel with the RIa and RIb analogues. It was shown that all the sera positive with the L peptide were also positive with the retro-inverso peptides. […] The mean optical density corresponding to the arithmetic mean of all the optical density values, including the values below the threshold line of positivity, is 0.21 (standard deviation 0.25) and 0.51 (standard deviation 0.62) with the L and RIb peptides respectively.
This is another data set of the same source.

For data set [11], the system named is antibodies of sera of patients bonding to the RIb peptide. The class given is binding, human.

Where two headings read alike, the source gives them in different places. Ends that are not written are not given here. Peptide text beside a SMILES is read from it.

Chain of I-A^d class II molecules (P04228 24-256 limits assumed): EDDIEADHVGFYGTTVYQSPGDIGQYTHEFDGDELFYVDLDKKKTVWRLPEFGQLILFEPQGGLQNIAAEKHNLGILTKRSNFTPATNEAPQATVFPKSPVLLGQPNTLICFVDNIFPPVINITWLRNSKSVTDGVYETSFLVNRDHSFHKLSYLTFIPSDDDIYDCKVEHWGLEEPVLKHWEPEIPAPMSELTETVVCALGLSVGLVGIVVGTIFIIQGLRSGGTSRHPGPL
Chain of I-A^d class II molecules (P01921 28-265 limits assumed): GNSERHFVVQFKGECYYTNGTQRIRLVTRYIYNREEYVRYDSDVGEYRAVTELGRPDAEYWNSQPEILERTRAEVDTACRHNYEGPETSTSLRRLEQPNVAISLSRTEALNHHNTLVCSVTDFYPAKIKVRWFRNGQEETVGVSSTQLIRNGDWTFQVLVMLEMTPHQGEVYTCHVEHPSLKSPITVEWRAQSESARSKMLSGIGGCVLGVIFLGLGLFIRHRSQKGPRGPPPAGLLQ

In the case of `CC[C@@H](C)[C@@H](NC(=O)CNC(=O)CNC(=O)[C@H](N)CS)C(=O)N[C@H](CCCNC(=N)N)C(=O)NCC(=O)N[C@H](CCC(=O)O)C(=O)N[C@H](CCCNC(=N)N)C(=O)N[C@H](C)C(=O)O` [D peptide] (HELM PEPTIDE1{[dC].G.G.[dI].[dR].G.[dE].[dR].[dA]}$$$$V2.0), the “time to complete loss of immunological activity on digestion with immobilized trypsin” value with trypsin is recorded as greater than 240 min. Besides, the half-life in the data set “in vitro” came to 1.22 h. For the same compound, the results for the “BIAcore (Ka M^−1) affinity constant at equilibrium” value in [1] and in data set [2] were 1e+07 M⁻¹ and 1e+10 M⁻¹, respectively. For the same compound, the “Ka (affinity constant at equilibrium)” value in data set [1] was 1.2e+07 M⁻¹; in data set [2], 13,000 ×10^6 M^−1.

As for “Ac-CKAFSNSYPYDVPDYASL-NH2 [double blocked L-peptide *C18L*]”, the “recognition by the tested antibodies (ELISA)” value in [3] is on record as “substantially recognized in the same way”.

On to “Ac-YFMYSKLRVQKSC-NH2 [L-peptide 435–446 of γ2a^b]”, for which, in [4], the “proliferation and IL-2 production of lymph node cells of mice immunized with retro-inverso analogue 435–446 of γ2a^b, stimulated by the peptide” value is “proliferation of lymph node cells and IL-2 production were observed”; the “proliferation of T-lymphocytes of mice immunized with parent peptide 435–446 of γ2a^b, stimulated by the peptide” value was “induced a proliferative T-cell response”. In addition, at I-E^d class II molecules, the “inhibition (of IL-2 production / binding of cI 12–26)” value is recorded as “Up to 84%”. In addition, at I-A^d class II molecules, the “reduction of the IL-2 production level” value is recorded as greater than 88%. Also, in the data set with BALB/c mice, the “cross-reaction in ELISA of antibodies raised against the peptide with the counterpart (L or retro-inverso) peptide” value is recorded as “showed no cross-reaction”. In data set [5], the “IL-2 production of T-lymphocytes of mice immunized with parent peptide 435–446 of γ2a^b, stimulated by the peptide” value was “only observed after stimulation by the parent peptide” and the “maximal IL-2 secretion measured using CTL-L cells in the presence of Con A” value (from here on “maximal IL-2 secretion measured”) is 21 565 cpm.

“CH3CO-(D)Cys-(D)Ser-(D)Lys-(D)Gln-(D)Val-(D)Arg-(D)Leu-(D)Lys-(D)Ser-(D)Tyr-(D)Met-(D)Phe-(D)Tyr-NH2 [retro-inverso peptide 435–446 of γ2a^b]”: at I-E^d class II molecules, the “inhibition (of IL-2 production / binding of cI 12–26)” value was no more than 48%. Besides, at I-A^d class II molecules, the “inhibition, in words” value was “almost no inhibition” and the “reduction of the IL-2 production” value is recorded as “about 35%”. Further, in [5], the “IL-2 production of T-lymphocytes of mice immunized with parent peptide 435–446 of γ2a^b, stimulated by the peptide” value is recorded as “failed to induce detectable IL-2 secretion” and the “maximal IL-2 secretion measured” value was 26 445 cpm.

“CH3CO-Lys-Leu-Phe-AI a-Val-Trp-Lys-Ile-Thr-Tyr-Lys-Asp-Thr-NH2 [L-peptide 103–115 of poliovirus VP1]”: the “IL-2 production by T-cells primed with the retro-inverso analogue 103–115 in response to the peptide” value in data set [6] is recorded as “significantly increased”. Further, in data set [4], the “proliferation of T-lymphocytes of mice immunized with retro-inverso analogue 103–115, in response to the peptide” value was “a good proliferative response” and the “proliferation of lymph node cells of mice immunized with parent peptide 103–115, stimulated in vitro by the peptide” value is “proliferated”. The “inhibition (of IL-2 production / binding of cI 12–26)” value on I-E^d class II molecules is “up to 77%”. For the same compound, on I-A^d class II molecules, the “binding to I-A^d transfected fibroblasts, in words” value is recorded as “Neither the L- nor the retro-inverso peptides bound”. For the same compound, the “IL-2 production of T-cell hybridomas stimulated by the peptide” value in data set [7] is listed as “produced high levels of IL-2”. For the same compound, the “cross-reaction in ELISA of antibodies raised against the peptide with the counterpart (L or retro-inverso) peptide” value with BALB/c mice is “cross-reacted, although less efficiently”. For the same compound, in [5], the “IL-2 production of T-lymphocytes of mice immunized with retro-inverso analogue 103–115, in response to the peptide” value is listed as “IL-2 production were also found”; the “IL-2 production of lymph node cells of mice immunized with parent peptide 103–115, stimulated in vitro by the peptide” value is on record as “produced significant levels of IL-2”; the “maximal IL-2 secretion measured” value is reported as 10 990 cpm.

Turning to “CH3CO-Ser → Ala → Pro → Ala → Thr → Gly → Gly → Val → Lys → Lys → Pro → His → Arg → Tyr → Arg → Pro → Gly → Thr-NH2 [blocked L peptide 28–45]”, in data set [8], the “number of positive sera” value was 20, the “number of positive sera DLE” value turned out to be 12 and the “percentage of positive sera” value is 29%.

As for GILGFVFAL [Ala 65], the “fixing to the molecule HLA-A2 (fluorescence), in words” value (from here on “fixing to the molecule HLA-A2”) in the data set with HLA-A2 is “very active”.

Regarding GLLGFVFTL [Leu 59], in the data set with HLA-A2, the “fixing to the molecule HLA-A2” value is recorded as “very active”.

“H2 N-D-Val ← D-Cys ← D-Glu ← D-Lys ← D-Leu ← D-Cys ← D-Asn ← D-Glu ← D-Lys ← D-Leu ← D-Leu ← D-Lys ← D-Lys ← D-Ala ← D-Arg ← D-Ile ← D-His ← D-Pro ← D-Phe ← D-His ← D-Ile-COCH3 [Blocked RI peptide 304–324 of Ro60]”: in data set [9], the mean optical density is 1.15, the “number of sera which reacted” value is recorded as 15/20 and the “percentage of sera which reacted” value was 75%.

As for “H2N-Gly ← D-Leu ← D-Lys ← D-Lys ← D-Nle ← D-Leu ← D-Arg ← D-Thr ← D-Cys ← D-Ala ← D-Val ← D-His ← D-Ile ← D-Thr ← (R,S)-mLeu-OH [RIb peptide]”, the “sera of patients tested in which anti-peptide 277–291 antibodies are detected” value in [10] (30 sera of DLE and SS patients) is listed as 50%. In addition, the mean optical density in data set [10] (arithmetic mean of all 30 sera, peptide 277–291 of Ro52) was 0.51. Further, the “number of sera which reacted among the 25 sera negative with the L peptide” value in data set [10] (threshold 0.30 OD units) was 10. Further, in data set [11], the “inhibition of bonding of the antibodies to the RIb peptide” value was “up to 79.2%”.

As to “H → Gly → Leu → Lys → Lys→ Nle → Leu → Arg → Thr → Cys → Ala → Val → His → Ile → Thr → Leu → OH [L peptide 277–291]”, the “inhibition of bonding of the antibodies to the RIb peptide” value in [11] is given as “up to 75.8%”.

As for “H-CKAFSNSYPYDVPDYASL-OH [parent L-peptide C18L]”, the “recognition by the tested antibodies (ELISA)” value in data set [3] is “substantially recognized in the same way”.

As to “H-Ser → Ala → Pro → Ala → Thr → Gly → Gly → Val → Lys → Lys → Pro → His → Arg → Tyr → Arg → Pro → Gly → Thr-OH [natural L peptide 28–45]”, in data set [8], the “number of positive sera” value stood at 12, the “number of positive sera DLE” value stood at 8 and the “percentage of positive sera” value came to 17.4%.

As for [gLeu^60–mGly^61] M58–66 [GG5], the “fixing to the molecule HLA-A2” value with HLA-A2 was “do not bond to the HLA-A2 molecule”.
